In the experiment the test system is β-lactamase of Escherichia coli 3.5.2.6. Kind of experiment: Hydrolysis of nitrocefin with β-lactamase in the presence of inhibitors (spectrophotometric, 495 nm). Format: biochemical. Particulars: substrate nitrocefin 190 μmole/l; inhibitor 10 μmole/l. As for the experimental part: Determination of inhibitory action of the compounds of the formula I upon the enzyme β-lactamase
The inhibitory action of the compounds of the formula I was determined according to standard methodology (Bush, K. and Sykes, R. B. Methods of Enzymatic Analysis, Third Edition, Vol. 4, p. 280, Verlag Chemie GmbH, Weinheim, 1984). The method comprises a spectrophotometric quantitative (band at 495 nm) measurement of catalytic action of the enzyme β-lactamase from the E. coli EC 3.5.2.6 strain. As a substrate nitrocefin ((7R)-3-((E)-2,4-dinitrostiryl)-7-(2-thienylacetamido)-3-cefem-4-carboxylic acid) was used which has the broadest spectrum of susceptibility and sensibility. The hydrolysis of nitrocefin in the presence of an inhibitor of the enzyme β-lactamase was determined.
Hydrolysis of nitrocefin with β-lactamase of Escherichia coli 3.5.2.6 in the presence of inhibitors

This note sets out measurements from patent publication US6489318B1, “Ethylidene derivatives of tricyclic carbapenems” (LEK, tovarna farmacevtskih in kemicnih izdelkov, d.d., priority 1996, dated 2002).

As for `C/C=C1/C(=O)N2C(C(=O)O)=C3CCSC[C@H]3[C@H]12` [compound A, sodium (8R,9R)-10-((E)-ethylidene)-11-oxo-1-aza-6-thiatricyclo[7.2.0.0^3,8]undec-2-ene-2-carboxylate], the “Inhibitory activity (%)” value is 38%.

With `C/C=C1/C(=O)N2C(C(=O)[O-])=C3CCCC[C@@H]3[C@H]12.[Na+]` [compound B, sodium (8S,9R)-10-((E)-ethylidene)-11-oxo-1-azatricyclo[7.2.0.0^3,8]undec-2-ene-2-carboxylate], the “Inhibitory activity (%)” value was determined as 23%. Regarding `CC1(C)[C@H](C(=O)O)N2C(=O)C[C@H]2S1(=O)=O` [sulbactam, reference compound], the “Inhibitory activity (%)” value is given as 50%.
